Assay results reported in patent US12168019B1, “8-hydroxy quinoline derivatives for enhancing telomerase reverse transcriptase (TERT) expression” (Sierra Sciences, Inc., priority 2010, dated 2024).

How the values were obtained:
[1] = system: human TERT expression (hTERT mRNA transcripts); assay: Quantitative real-time RT-PCR of hTERT mRNA transcripts in compound-treated cells; type: cell-based
Source text: Telomerase is a ribonucleoprotein complex composed of the catalytic protein subunit (human telomerase reverse transcriptase or hTERT) and the RNA template. hTERT expression level can be measured by PCR.
Quantitative Reverse Transcription PCR can be run according to procedures outlined in Yajima et al. (Yajima, T. et al. Quantitative Reverse Transcription-PCR Assay of the RNA Component of Human Telomerase Using the TaqMan Fluorogenic Detection System Clinical Chemistry, 44:12, 2441-2445, 1998).
The principle of real-time PCR was first described by Heid et al. (Heid C. A., Stevens J., Livak K. J., Williams P. M. Real time quantitative PCR. Genome Res., 6: 986-994, 1996). Briefly, amplification of the target sequence is monitored per PCR cycle by detecting the fluorescence signal emitted by an internal probe that is degraded by the 5′ nuclease activity of the Taq polymerase. The emission signal accumulates in each sample, and the Ct required to reach a given fluorescence threshold is determined (Ct stands for Cycle Threshold and is a measure of the number of PCR cycles that are required to amplify a target—thus, a lower Ct score means that there is more abundant hTERT mRNA). Thus, the C1 value of a sample inversely correlates to the quantity of the starting cDNA which correlates to the number of mRNA transcripts. Using the cDNA of known quantity, a standard curve can be generated and used to determine the starting amount of mRNA transcripts based on the […] of each sample.
Quantitative real-time PCR can be done on cDNA from test compound-treated and nontreated cells by use of a ABI Prism 7900 Sequence Detection System (PE Applied Biosystems, Foster City, CA) following the Assays-on-Demand protocol (PE Applied Biosystems, Foster City, CA). Quantitative data can be analyzed using the Sequence Detection System software version 2.1 (PE Applied Biosystems).
The following compounds were tested in assays designed to identify compounds that enhance human TERT expression. The compounds turned on human TERT expression in these assays.

viable cells in culture = assay: Cell viability assay (CellTiter-Glo Luminescent Cell Viability Assay, ATP quantitation); type: cell-based; details: percent of DMSO vehicle control
Method: Cell viability is determined using a homogeneous method, such as CellTiter-Glo® Luminescent Cell Viability Assay (Promega Corporation, Madison, WI) to determine the number of viable cells in culture These assays are based on quantitation of the ATP present, which signals the presence of metabolically active cells. Luminescent values of compound treated cells are compared to that of cells treated with vehicle alone to determine the average cell viability as a percent of control.
Also: test concentration or dose not given here.

Compound | Average Number of hTERT Transcripts [1] | Average Cell Viability after 24 Hours (% DMSO) (viable cells in culture)
O=C(NC(c1ccc2c(c1)OCO2)c1cc([N+](=O)[O-])c2cccnc2c1O)C1CCCCC1 (stereo not drawn) [Compound 1068] | 21.41 | 61.2 % DMSO
O=[N+]([O-])c1cc(CN2CCN(c3ccccc3)CC2)c(O)c2ncccc12 [Compound 1029] | 5.3 | 32 % DMSO
CCCCC(=O)NC(c1ccc2c(c1)OCO2)c1cc([N+](=O)[O-])c2cccnc2c1O (stereo not drawn) [Compound 1046] | 158.46 | 78 % DMSO
O=C(NC(c1ccc(Cl)cc1)c1ccc2cccnc2c1O)C1CCCCC1 (stereo not drawn) [Compound 1045] | 13.86 | 60.3 % DMSO
CC(=O)NC(c1cccs1)c1cc(Cl)c2cccnc2c1O (stereo not drawn) [Compound 1052] | 12.07 | 60.8 % DMSO
CCN(CC)c1ccc(C(NC(=O)C(C)C)c2cc(Cl)c3cccnc3c2O)cc1 (stereo not drawn) [Compound 1011] | 14.2 | 64.5 % DMSO
CC(=O)NC(c1ccccc1Cl)c1ccc2cccnc2c1O (stereo not drawn) [Compound 1025] | 113.98 | 93.5 % DMSO
CCCCC(=O)NC(c1ccc(O)c(OCC)c1)c1cc([N+](=O)[O-])c2cccnc2c1O (stereo not drawn) [Compound 1075] | 83.26 | 82.63 % DMSO
Cc1cc(C)n(-c2ccc3c(Cl)cc(Cl)c(O)c3n2)n1 [Compound 1079] | 98.36 | 71.22 % DMSO
Cc1ccc(S(=O)(=O)Nc2cc(S(=O)(=O)c3ccc(C)cc3)c(O)c3ncccc23)cc1 [Compound 1093] | 160.48 | 66.5 % DMSO
COc1ccc(C(NC(C)=O)c2cc(Cl)c3cccnc3c2O)cc1OC (stereo not drawn) [Compound 1038] | 28.95 | 80.33 % DMSO
Oc1c(Cl)cc(Cl)c2cccnc12 [Compound 1020] | 45.03 | 25.1 % DMSO
Oc1c(I)cc(I)c2cccnc12 [Compound 1018] | 105.41 | 56.9 % DMSO
COc1cc(C(Nc2ccccn2)c2ccc3cccnc3c2O)cc(Br)c1OC (stereo not drawn) [Compound 1005] | 55.17 | 64.8 % DMSO
Oc1c(CN2CCN(c3cccc(Cl)c3)CC2)cc(Br)c2cccnc12 [Compound 1002] | 14.79 | 57.7 % DMSO
CCC(=O)NC(c1ccc(OC)c(OC)c1)c1cc([N+](=O)[O-])c2cccnc2c1O (stereo not drawn) [Compound 1028] | 65.66 | 80.69 % DMSO
CCC(=O)NC(c1ccco1)c1cc(Cl)c2cccnc2c1O (stereo not drawn) [Compound 1039] | 30.9 | 
CCCOCc1cc(CN2CCCCC2)c(O)c2ncccc12 [Compound 1100] | 9.12 | 56.1 % DMSO
CC(=O)NC(c1ccccc1)c1cc([N+](=O)[O-])c2cccnc2c1O (stereo not drawn) [Compound 1050] | 47.68 | 

Compound | Average Number of hTERT Transcripts [1] | Average Cell Viability after 24 Hours (% DMSO) (viable cells in culture)
COc1ccc(C(NC(=O)C(C)C)c2cc([N+](=O)[O-])c3cccnc3c2O)cc1 (stereo not drawn) [Compound 1073] | 103.42 | 80.1 % DMSO
Cc1ccc2c(I)cc(I)c(O)c2n1 [Compound 1105] | 51.56 | 
Cc1ccnc(NC(c2ccc([N+](=O)O)cc2)c2ccc3ccc(C)nc3c2O)c1 (stereo not drawn) [Compound 1081] | 18.87 | 70.69 % DMSO
Cc1ccc2ccc(C(Nc3ccccn3)c3ccccc3Br)c(O)c2n1 (stereo not drawn) [Compound 1108] | 31.13 | 
Oc1c(I)cc(Cl)c2cccnc12 [Compound 1021] | 60.68 | 
Oc1c(Br)cc(Br)c2cccnc12 [Compound 1019] | 271.75 | 
COC(=O)c1ccc(C(Nc2cc(C)ccn2)c2ccc3ccc(C)nc3c2O)cc1 (stereo not drawn) [Compound 1008] | 43.18 | 
COc1ccc(C(NC(=O)C(C)C)c2cc([N+](=O)[O-])c3cccnc3c2O)cc1OC (stereo not drawn) [Compound 1112] | 58.99 | 
CCCC(=O)NC(c1ccc(N(CC)CC)cc1)c1cc(Cl)c2cccnc2c1O (stereo not drawn) [Compound 1070] | 68.65 | 
Oc1c(C(Nc2ccccn2)c2ccccc2Br)ccc2cccnc12 (stereo not drawn) [Compound 1007] | 18.02 | 68 % DMSO
CCCC(=O)NC(c1ccc(N(C)C)cc1)c1cc(Cl)c2cccnc2c1O (stereo not drawn) [Compound 1066] | 43.68 | 
Cc1ccc(S(=O)(=O)Nc2cc(Cl)c(O)c3ncccc23)cc1 [Compound 1092] | 96.33 | 
Cc1ccc(S(=O)(=O)Nc2ccc(O)c3ncccc23)cc1 [Compound 1091] | 91.89 | 94.3 % DMSO
CCCC(=O)NC(c1ccc(O)c(OCC)c1)c1cc([N+](=O)[O-])c2cccnc2c1O (stereo not drawn) [Compound 1036] | 65 | 
Cc1ccnc(NC(c2cccc([N+](=O)O)c2)c2ccc3ccc(C)nc3c2O)c1 (stereo not drawn) [Compound 1084] | 11.54 | 65.08 % DMSO
CCN(CC)Cc1ccc(O)c2ncccc12 [Compound 1096] | 48.25 | 
Cc1ccnc(NC(c2cccc(Cl)c2)c2ccc3ccc(C)nc3c2O)c1 (stereo not drawn) [Compound 1080] | 26.36 | 
CC(C)C(=O)NC(c1ccc2c(c1)OCO2)c1cc([N+](=O)[O-])c2cccnc2c1O (stereo not drawn) [Compound 1064] | 52.74 | 
COc1cccc(C(=O)NC(c2ccc(OC)c(OC)c2)c2cc(Cl)c3cccnc3c2O)c1 (stereo not drawn) [Compound 1013] | 40.42 | 
